The assay concerns the target T1, Thermus thermophilus TtPFK optical probe 254/256-TtPFK-cpYFP variant, TtPFK L320F/I253Q/Q254L/G256V/G257L, cpYFP Y1T/N246F (Thermus thermophilus, UniProt P21777, form not given/G256V/G257L/I253Q/L320F/Q254L).
T1 construct: the numbering corresponds to the full length of the phosphoenolpyruvate-sensitive polypeptide; His-tag; made in house; host or cells: E. coli BL21 (DE3), pCDF vector
As to the kind of experiment: phosphoenolpyruvate titration of purified optical probe (fluorescence ratio). The class given is binding. The note with it: phosphoenolpyruvate 0 to 10 mM, purified probe treated 10 minutes, ex 420/485 nm, em 528 nm. Here is the method:
• 1. The expression vectors (for example, a phosphoenolpyruvate optical probe expression vector based on pCDF.) were transformed into BL21 (DE3) cells, incubated inverted overnight, and the clones were picked from the plates into 250 mL Erlenmeyer flasks, placed in a shaker at 37 °C and incubated at 220 rpm to OD=0.4-0.8, then 1/1000 (V/V) of IPTG (1 M) was added to induce expression at 18 °C for 24-36 hours. • 2. Upon completion of inducible expression, cells were harvested by centrifugation at 4000 rpm for 30 min, resuspended in 50 mM phosphate buffer and disrupted ultrasonically until the broth were clear, centrifuged at 9600 rpm at 4 °C for 20 min. • 3. The centrifuged supernatant was used to obtain protein by purification through a self-packed nickel column affinity chromatography column, and the protein obtained after nickel column affinity chromatography was further used to obtain protein dissolved in 100 mM HEPES buffer (pH 7.4). • 4. After purified proteins were subjected to SDS-PAGE, probes were diluted to a protein solution having a final concentration of 0.2-5 µM using assay buffer (100 mm HEPES, 100 mM NaCl, pH 7.4). Phosphoenolpyruvate was formulated as a stock solution at a final concentration of 50 mM with the assay buffer (100 mM HEPES, 100 mM NaCl, pH 7.4). • 5. 100 µl 1 µM of protein solution was taken, incubated at 37 °C for 10 min, phosphoenolpyruvate was added for titration, and the fluorescence intensity of 528 nm emission after 420 nm and 485 nm fluorescence excitation of the protein was measured. The fluorescence excitation and emission determination of the samples were done using a multifunctional fluorescence microplate reader. • 6. 100 µl 1 µM of protein solution was taken, incubated at 37 °C for 10 min, and phosphoenolpyruvate was added to determine the absorption and fluorescence spectra of the proteins. Determination of the absorption and fluorescence spectra of the samples was done by spectrophotometer and spectrofluorometer.
For the 254/255-TtPFK-cpYFP obtained in Example 2 and the 254/255-TtPFK-I253G/Q254L/R255L/G256F-cpYFP-Y1P, 254/255-TtPFK-I253K/Q254L/R255L/G256F-cpYFP-Y1S and 254/256-TtPFK-I253Q/Q254L/G256V/G257L-cpYFP-Y1T/N246F optical probes obtained in Example 6, amino acid were mutated at positions R21, R25, V54, R55, V57, A58, N59, I60, I61, R155, G186, R212, G213, K214, K215, S216 and L320 in the phosphoenolpyruvate binding pocket, and at positions R72, R163, R172 and R246 in the ATP binding pocket to adjust the affinity of the phosphoenolpyruvate optical probe to phosphoenolpyruvate and the substrate specificity. The probes were linearized by reverse PCR, and the sequences of the mutation sites were introduced into the primers. The obtained PCR products were subjected to homologous recombination to obtain plasmids containing the above site mutations. The mutant plasmids were transformed into BL21 (DE3) for induced expression, and the mutant probe proteins were purified for the phosphoenolpyruvate response test. The detection signal of the fusion fluorescent protein containing 2 mM phosphoenolpyruvate was divided by the detection signal of the fusion fluorescent protein without phosphoenolpyruvate. […]

This note sets out measurements from patent publication EP4624497A1, “PHOSPHOEN[…] PROBE, PREPARATION METHOD THEREFOR AND APPLICATION THEREOF” (priority 2022, dated 2024).

T1 sequence (P21777 other isoform, or with tags, fused parts or gaps, stated change not applied): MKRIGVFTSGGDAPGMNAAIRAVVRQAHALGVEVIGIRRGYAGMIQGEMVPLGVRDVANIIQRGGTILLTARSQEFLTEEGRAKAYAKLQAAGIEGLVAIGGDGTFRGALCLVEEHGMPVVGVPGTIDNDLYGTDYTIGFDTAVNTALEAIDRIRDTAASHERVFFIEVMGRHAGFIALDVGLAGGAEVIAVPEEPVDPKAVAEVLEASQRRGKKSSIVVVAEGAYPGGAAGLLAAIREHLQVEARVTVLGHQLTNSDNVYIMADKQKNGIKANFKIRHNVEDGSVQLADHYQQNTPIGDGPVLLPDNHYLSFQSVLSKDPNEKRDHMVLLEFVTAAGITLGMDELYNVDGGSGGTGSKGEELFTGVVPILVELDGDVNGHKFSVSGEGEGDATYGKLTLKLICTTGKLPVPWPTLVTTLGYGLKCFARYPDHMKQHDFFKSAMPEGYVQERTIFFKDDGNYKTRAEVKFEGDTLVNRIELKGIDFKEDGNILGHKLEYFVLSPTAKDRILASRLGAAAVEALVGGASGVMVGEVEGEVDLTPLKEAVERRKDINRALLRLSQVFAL

Consider `C=C(OP(=O)(O)O)C(=O)O` [phosphoenolpyruvate, Phosphoenolpyruvate], for which the Kd stood at 1770 µM.

Usually Kd stands for the concentration at which binding is half-saturated.
